The results in this text go back to ChEMBL document CHEMBL3227940, “Cyclopropylamines as suicide substrates for cytochromes P-450” (J Med Chem, 1979).

The structures appear in SMILES notation.

Common to all, as to assay type: ADME
What all share (settings): probe aminopyrine

The test system of data set [1] is cytochrome P450. As to the kind of experiment: Inactivation of cytochrome P450 in rat liver microsomes assessed as inhibition of aminopyrine demethylation at 1 mM preincubated for 12 mins measured 5 mins after substrate addition by Nash reagent based colorimetry (reference value: 0%). (In general: Microsomes from liver hold many membrane-bound enzymes, among them those of drug oxidation.)

Data set [2] has as its system cytochrome P450. As to the kind of experiment: Inactivation of cytochrome P450 in rat liver microsomes assessed as inhibition of aminopyrine demethylation at 1 mM measured without preincubation by Nash reagent based colorimetry (reference value: 0%).
For data set [3], the system named is cytochrome P450. In words: Inactivation of cytochrome P450 in rat liver microsomes assessed as inhibition of aminopyrine demethylation at 0.1 mM preincubated for 12 mins measured 5 mins after substrate addition by Nash reagent based colorimetry (reference value: 0%).
Data set [4] relates to cytochrome P450. In words: Inactivation of cytochrome P450 in rat liver microsomes assessed as inhibition of aminopyrine demethylation at 1 mM measured without preincubation by Nash reagent based colorimetry in presence of GSH (reference value: 0%).
The subject of data set [5] is cytochrome P450. As to the kind of experiment: Inactivation of cytochrome P450 in rat liver microsomes assessed as inhibition of aminopyrine demethylation at 1 mM measured without preincubation by Nash reagent based colorimetry in presence of flavoprotein amine oxidase alternate substrate-inhibitor methimazole (reference value: 0%).
The subject of data set [6] is cytochrome P450. In words: Inactivation of cytochrome P450 in rat liver microsomes assessed as inhibition of aminopyrine demethylation at 1 mM preincubated for 12 mins measured 5 mins after substrate addition by Nash reagent based colorimetry in absence of cofactor NADPH-generating system (reference value: 0%).
In data set [7] the test system is cytochrome P450. In words: Inactivation of cytochrome P450 in rat liver microsomes assessed as inhibition of aminopyrine demethylation at 1 mM preincubated for 12 mins measured 5 mins after substrate addition by Nash reagent based colorimetry in presence of GSH (reference value: 0%).
Data set [8] concerns cytochrome P450. In words: Inactivation of cytochrome P450 in rat liver microsomes assessed as inhibition of aminopyrine demethylation at 1 mM preincubated for 12 mins measured 5 mins after substrate addition by Nash reagent based colorimetry in presence of CO/O2 (80:20) (reference value: 0%).
Data set [9] relates to cytochrome P450. In words: Inactivation of cytochrome P450 in rat liver microsomes assessed as inhibition of aminopyrine demethylation at 1 mM preincubated for 12 mins measured 5 mins after substrate addition by Nash reagent based colorimetry in presence of flavoprotein amine oxidase alternate substrate-inhibitor methimazole (reference value: 0%).

Turning to `COc1ccc(CNC2CC2)cc1`, in the data set with cytochrome P450 [1], the inhibition (in general, the drop in the measured response relative to a control, in per cent) at 5 min, 1000 µM was 54%.

Turning to `c1ccc(CN2CCOCC2)cc1`, in the data set with cytochrome P450 [1], the inhibition at 5 min, 1000 µM amounted to 34%. Further, the inhibition at 1000 µM in the data set on cytochrome P450 [2] is 27%.

Consider `Clc1ccc(CNC2CC2)cc1`, for which the inhibition at 5 min, 1000 µM in the data set with cytochrome P450 [1] stood at 79%.

Consider `CC(C)NCc1ccc(Br)cc1`, for which the inhibition at 5 min, 1000 µM in the data set on cytochrome P450 [1] worked out at 27%.

Regarding `CC(C)NCCC=C1c2ccccc2CCc2ccccc21`, the inhibition at 5 min, 100 µM in the data set on cytochrome P450 [3] came to 55%.

As for `C(CCNC1CC1)=C1c2ccccc2CCc2ccccc21`, the inhibition at 5 min, 100 µM with cytochrome P450 [3] is 92%.

In the case of `Cc1ccc(CNC(C)C)cc1`, the inhibition at 5 min, 1000 µM in the data set with cytochrome P450 [1] is 2%.

On to `Brc1ccc(CNC2CC2)cc1`, for which the inhibition at 5 min, 1000 µM in the data set on cytochrome P450 [1] is 79%.

`CC(C)NCc1ccc(Cl)cc1`: in the data set with cytochrome P450 [1], the inhibition at 5 min, 1000 µM was 25%.

For `Cc1ccc(CNC2CC2)cc1`, the inhibition at 5 min, 1000 µM in the data set on cytochrome P450 [1] came to 77%.

For the molecule `CC(C)NCc1ccccc1`, the inhibition at 5 min, 1000 µM in the data set with cytochrome P450 [1] was found to be 9%. In addition, in the data set with cytochrome P450 [2], the inhibition at 1000 µM stood at 9%.

Take `COc1ccc(CNC(C)C)cc1`: the inhibition at 5 min, 1000 µM with cytochrome P450 [1] was found to be 0%.

As to `c1ccc(CNC2CC2)cc1`, the inhibition at 1000 µM was 17% with cytochrome P450 [4], 25% in the data set on cytochrome P450 [5] and 29% in the data set with cytochrome P450 [2]. The inhibition at 5 min, 1000 µM in the data set with cytochrome P450 [1] was 61%; in the data set with cytochrome P450 [6] it was 13%; with cytochrome P450 [7], 62%; with cytochrome P450 [8], 24%; in the data set on cytochrome P450 [9], 57%.
